# Biological target: c-Met (Homo sapiens, UniProt P08581)
# Assay: radiometric protein kinase assay with recombinant human c-Met
# Assay type: biochemical
# c-Met, sequence (P08581 25-307): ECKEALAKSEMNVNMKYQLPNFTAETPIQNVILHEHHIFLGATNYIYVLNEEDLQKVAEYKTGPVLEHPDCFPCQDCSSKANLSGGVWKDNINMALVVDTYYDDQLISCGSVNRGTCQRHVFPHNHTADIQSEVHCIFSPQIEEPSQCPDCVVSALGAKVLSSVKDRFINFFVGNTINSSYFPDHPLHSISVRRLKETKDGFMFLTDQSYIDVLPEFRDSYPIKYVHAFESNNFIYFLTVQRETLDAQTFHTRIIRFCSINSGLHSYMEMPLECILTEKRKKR
# c-Met, sequence (P08581 308-1390): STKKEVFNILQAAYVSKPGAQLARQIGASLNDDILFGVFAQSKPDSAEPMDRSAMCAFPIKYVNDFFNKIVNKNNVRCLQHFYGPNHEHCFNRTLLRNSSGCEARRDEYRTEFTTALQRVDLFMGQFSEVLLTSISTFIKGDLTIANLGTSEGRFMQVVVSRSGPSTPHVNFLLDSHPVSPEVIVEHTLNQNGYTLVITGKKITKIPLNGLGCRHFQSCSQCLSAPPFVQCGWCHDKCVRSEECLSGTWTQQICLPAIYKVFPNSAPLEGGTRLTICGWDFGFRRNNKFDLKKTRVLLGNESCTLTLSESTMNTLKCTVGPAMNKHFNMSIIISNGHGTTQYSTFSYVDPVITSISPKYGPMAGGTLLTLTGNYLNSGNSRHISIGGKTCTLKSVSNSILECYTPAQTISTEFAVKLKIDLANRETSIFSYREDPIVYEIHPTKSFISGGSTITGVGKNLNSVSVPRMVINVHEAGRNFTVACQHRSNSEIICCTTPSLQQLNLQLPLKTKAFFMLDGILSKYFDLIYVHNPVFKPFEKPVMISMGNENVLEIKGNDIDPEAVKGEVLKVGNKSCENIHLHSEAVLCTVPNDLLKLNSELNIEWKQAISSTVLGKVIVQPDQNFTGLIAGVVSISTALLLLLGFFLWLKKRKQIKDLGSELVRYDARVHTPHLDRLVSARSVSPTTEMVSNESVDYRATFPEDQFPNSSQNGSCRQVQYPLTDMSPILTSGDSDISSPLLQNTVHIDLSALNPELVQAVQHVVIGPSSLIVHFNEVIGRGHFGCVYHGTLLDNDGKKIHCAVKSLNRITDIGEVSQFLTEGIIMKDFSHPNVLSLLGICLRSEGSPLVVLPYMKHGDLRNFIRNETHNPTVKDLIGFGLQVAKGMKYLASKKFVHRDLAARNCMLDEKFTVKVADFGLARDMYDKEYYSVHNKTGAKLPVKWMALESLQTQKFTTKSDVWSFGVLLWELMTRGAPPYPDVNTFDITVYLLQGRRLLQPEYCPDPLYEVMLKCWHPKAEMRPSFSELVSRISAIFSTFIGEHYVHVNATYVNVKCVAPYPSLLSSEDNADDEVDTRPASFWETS
smiles,measurement,value
"COc1c(C=O)c(O)cc2c1C(=O)c1ccccc1C2=O [damnacanthal, 3-hydroxy-1-methoxy-anthraquinone-2-aldehyde]",IC50,5.1 ± 0.1 µM
